From patent US9587002B2, “Sequence of nucleotides and peptides GSE 24.2 of dyskerin, which can induce telomerase activity, method for obtaining same, therapeutic compositions and applications thereof” (CONSEJO SUPERIOR DE INVESTIGACIONES CIENTIFICAS, priority 2005, dated 2017)

Assays:
hTERT = test: RT-PCR expression of hTERT in 293T cell lines after cisplatin; format: cell-based, human; details: pLNCX cells; 3 μg/ml, 3 days of treatment
Description: (§1) FIG. 7.—Expression levels of different genes related to telomerase in 293T cells: pLNCX and 24.2 following treatment with cisplatin. The cells were seeded in 60-mm plates, treated with 3 μg/ml of cDDP following pre-treatment with 0.5 μg/ml of cisplatin for 3 days and, subsequently, collected at the times specified in the figure (3 and 7 days). Following the extraction of RNA, RT-PCR was performed with oligos specific for hTERT, hTR and dyskerin in order to study the expression levels of the messenger RNAs. As a starting RNA control, oligos for the amplification of GAPDH were used.
(§2) One of the explanations for the lower sensitivity of pLNCX 24.2 cells to cisplatin could be a change in the levels of some of the components of the telomerase complex. Therefore, the expression levels of different genes involved in the telomerase complex and the effect that cisplatin had on their expression were studied. To this end, the pLNCX and pLNCX 24.2 cells were pre-treated with 0.5 μg/ml and treated with 3 μg/ml of cisplatin for 3 and 7 days. Using oligos specific for hTR, hTERT and dyskerin, the expression levels of these genes and the effect of cisplatin on said expression were studied. […] This change in the sensitivity to cisplatin could explain, at least partially, the difference in sensitivity in the telomerase activity assays.
(§3) Expression of genes by RT-PCR. […]

telomerase [1] = molecular target: T1, telomerase (Homo sapiens, UniProt O14746); test: Telomerase activity (TRAP) of 293T cell lines treated with cisplatin; format: cell-based; parameters: endogenous in cells; host or cells: 293T cells stably transfected with empty pLNCX or pLNCX 24.2; details: 293T pLNCX cells; pre-treated 0.5 μg/ml 3 days, then 3 μg/ml, 7-day treatment
T1 sequence (O14746 whole entry): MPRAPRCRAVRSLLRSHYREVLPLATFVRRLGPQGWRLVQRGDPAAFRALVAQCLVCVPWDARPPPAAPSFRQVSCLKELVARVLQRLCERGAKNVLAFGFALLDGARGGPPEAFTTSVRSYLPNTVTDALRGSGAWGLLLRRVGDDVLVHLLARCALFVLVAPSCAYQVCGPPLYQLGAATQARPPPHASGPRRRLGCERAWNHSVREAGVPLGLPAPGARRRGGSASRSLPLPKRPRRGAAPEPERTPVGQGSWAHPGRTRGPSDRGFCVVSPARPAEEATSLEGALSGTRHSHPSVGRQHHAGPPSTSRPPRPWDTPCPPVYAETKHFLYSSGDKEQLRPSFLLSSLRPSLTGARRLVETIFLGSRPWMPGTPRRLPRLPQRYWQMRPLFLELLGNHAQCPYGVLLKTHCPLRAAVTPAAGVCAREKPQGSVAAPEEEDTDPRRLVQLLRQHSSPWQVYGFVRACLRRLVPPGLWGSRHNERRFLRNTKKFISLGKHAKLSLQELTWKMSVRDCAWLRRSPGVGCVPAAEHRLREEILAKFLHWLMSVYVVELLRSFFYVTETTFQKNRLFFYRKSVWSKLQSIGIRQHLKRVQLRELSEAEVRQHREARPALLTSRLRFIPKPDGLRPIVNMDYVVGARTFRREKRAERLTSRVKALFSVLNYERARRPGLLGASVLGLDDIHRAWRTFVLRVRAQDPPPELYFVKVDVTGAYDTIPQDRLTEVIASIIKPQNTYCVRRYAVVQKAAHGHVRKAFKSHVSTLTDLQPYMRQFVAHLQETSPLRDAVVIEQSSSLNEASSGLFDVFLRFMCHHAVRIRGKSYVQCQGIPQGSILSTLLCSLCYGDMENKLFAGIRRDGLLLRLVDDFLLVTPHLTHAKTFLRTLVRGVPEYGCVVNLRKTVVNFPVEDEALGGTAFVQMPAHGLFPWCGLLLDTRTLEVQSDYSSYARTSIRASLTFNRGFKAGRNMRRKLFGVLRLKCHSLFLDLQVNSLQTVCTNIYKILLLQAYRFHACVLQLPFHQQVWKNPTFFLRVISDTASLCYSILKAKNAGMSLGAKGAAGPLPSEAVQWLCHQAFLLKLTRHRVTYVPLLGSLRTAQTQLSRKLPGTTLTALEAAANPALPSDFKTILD
T1 sequence (O60832 2-514 partner limits assumed): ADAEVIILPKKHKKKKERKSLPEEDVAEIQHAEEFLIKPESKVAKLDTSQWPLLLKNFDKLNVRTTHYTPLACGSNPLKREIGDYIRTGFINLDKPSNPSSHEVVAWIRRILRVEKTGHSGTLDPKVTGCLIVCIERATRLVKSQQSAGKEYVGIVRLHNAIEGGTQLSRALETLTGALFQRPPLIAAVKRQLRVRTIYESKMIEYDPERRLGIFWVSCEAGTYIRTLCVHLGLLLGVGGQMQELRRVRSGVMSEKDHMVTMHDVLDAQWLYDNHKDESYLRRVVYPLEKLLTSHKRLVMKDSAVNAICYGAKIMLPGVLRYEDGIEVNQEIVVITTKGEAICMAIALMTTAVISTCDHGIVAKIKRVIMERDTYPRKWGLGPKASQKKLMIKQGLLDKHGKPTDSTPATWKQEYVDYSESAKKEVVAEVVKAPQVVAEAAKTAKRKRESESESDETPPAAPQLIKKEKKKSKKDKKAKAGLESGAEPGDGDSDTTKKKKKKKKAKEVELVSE
T1 sequence (Q9NPE3 whole entry partner): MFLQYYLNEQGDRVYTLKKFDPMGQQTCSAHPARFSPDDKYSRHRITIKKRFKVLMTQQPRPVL
T1 sequence (Q9NX24 whole entry partner): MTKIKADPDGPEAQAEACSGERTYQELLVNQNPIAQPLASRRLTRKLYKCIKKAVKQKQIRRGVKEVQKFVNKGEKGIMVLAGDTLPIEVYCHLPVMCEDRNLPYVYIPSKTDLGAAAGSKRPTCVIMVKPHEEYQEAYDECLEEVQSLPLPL
T1 sequence (Q9NY12 whole entry partner): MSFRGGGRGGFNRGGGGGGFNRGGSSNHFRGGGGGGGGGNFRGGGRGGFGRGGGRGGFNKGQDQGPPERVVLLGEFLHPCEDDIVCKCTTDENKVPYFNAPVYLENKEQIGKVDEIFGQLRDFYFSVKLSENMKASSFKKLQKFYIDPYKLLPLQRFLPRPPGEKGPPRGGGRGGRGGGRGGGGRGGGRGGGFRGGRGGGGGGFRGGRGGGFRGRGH
T1 sequence (Q9BUR4 whole entry partner): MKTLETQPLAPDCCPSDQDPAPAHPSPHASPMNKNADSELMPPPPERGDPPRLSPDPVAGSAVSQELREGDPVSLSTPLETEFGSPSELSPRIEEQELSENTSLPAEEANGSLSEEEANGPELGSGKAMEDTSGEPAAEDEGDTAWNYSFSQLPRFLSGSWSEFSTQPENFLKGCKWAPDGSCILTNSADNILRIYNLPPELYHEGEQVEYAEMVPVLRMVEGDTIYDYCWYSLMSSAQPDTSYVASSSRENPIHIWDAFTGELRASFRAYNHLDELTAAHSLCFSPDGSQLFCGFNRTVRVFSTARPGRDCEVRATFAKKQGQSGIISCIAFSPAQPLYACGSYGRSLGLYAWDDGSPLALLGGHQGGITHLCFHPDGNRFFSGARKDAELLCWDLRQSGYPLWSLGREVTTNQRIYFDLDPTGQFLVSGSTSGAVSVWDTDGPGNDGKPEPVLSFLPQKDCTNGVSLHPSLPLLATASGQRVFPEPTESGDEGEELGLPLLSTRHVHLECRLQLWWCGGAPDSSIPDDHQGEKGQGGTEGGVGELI
Description: FIG. 5.—Telomerase activity of the 293T cell lines: pLNCX and 24.2 following treatment with cisplatin. The cells were seeded in 60-mm plates, pre-treated with 0.5 μg/ml of cisplatin for 3 days and subsequently treated with cisplatin at a dose of 3 μg/ml […]. The telomerase activity was measured by means of the Intergen TRAPeze assay. The experiment was performed 3 times, with similar results.
To this end, an assay of telomerase activity was performed using the TRAP method with the pLNCX and pLNCX 24.2 cell lines (FIG. 5), pre-treating them for 3 days with 0.5 μg/ml of cisplatin; subsequently, they were treated with 3 μg/ml of cisplatin for 3 and 7 days. […]
Telomerase activity assay based on the TRAP method Wright et al., 1995). The telomerase activity was measured using the TRAPeze telomerase detection kit (Intergen) in accordance with the instruction manual. The protein concentration of each extract was quantified by means of the Bradford method using the BIORAD reagent and after performing a PCR in accordance with the manual instructions; polyacrylamide gel electrophoresis was performed with the reaction products under non-denaturing conditions and, subsequently, it was stained with Ethidium bromide for 30 minutes.

dyskerin = test: RT-PCR expression of dyskerin in 293T cell lines after cisplatin; format: cell-based, human; details: pLNCX and pLNCX 24.2 cells; 3 μg/ml, 3 and 7 days
Description: as §1, §2, §3

hTR = test: RT-PCR expression of hTR in 293T cell lines after cisplatin; format: cell-based, human; details: pLNCX and pLNCX 24.2 cells; 3 μg/ml, 3 and 7 days
Description: as §1, §2, §3

telomerase [2] = molecular target: T1, telomerase; details: different cell lines / G-quadruplex formation in telomeres; cited from earlier work

N.N.[Cl][Pt][Cl] [cisplatin]
effect of cisplatin on hTERT expression (hTERT): reduction in the expression of hTERT
effect of cisplatin on telomerase activity (telomerase [1]): caused inhibition of telomerase activity
effect of cisplatin on dyskerin expression (dyskerin): no effect
effect of cisplatin on hTR expression (hTR): no effect
inhibition of telomerase activity (literature) (telomerase [2]): capable of inhibiting telomerase activity
